Results on five compounds are retold here after patent US11458433B2, “Absorbent and process for selectively removing hydrogen sulfide” (BASF SE, priority 2017, dated 2022).

Holding throughout (type): physicochemical
Series [1] can be described thus: Volatility of amines in 30% by weight aqueous solutions (condensate analysis). The conditions noted are these: 30 wt.-% amine + 70 wt.-% H2O, 200 mL, 50° C., 30 L (STP)/h N2, 8 h; average of three experiments. The protocol:
The volatility of several amines in 30% by weight aqueous solutions was examined.
The glass cylinder was regulated to 50° C., and 200 mL of the absorbent were introduced in each case. Over an experimental duration of 8 h, 30 L (STP)/h of N2 were passed through the absorbent at ambient pressure.
The experiments were repeated three times.

Series [2] is described as follows: Phase separation: critical solution temperature in miscibility unit. The conditions noted are these: 36 wt.-% aqueous solution; measurable up to 140° C. As for the experimental part:
To determine the critical solution temperature, a miscibility unit was used. This unit allows the measurement of the temperature at which phase separation occurs (“critical solution temperature”).
The miscibility unit comprised a sight glass vessel equipped with a pressure gauge and a thermocouple. A heater was used to supply heat to the vessel. Measurements were possible up to a temperature of 140° C. The possible phase separation could be visually observed via the sight glass. In the following table, the measured critical solution temperatures are shown for different aqueous amine mixtures.

The nature of series [3]: pKA determination by titration with aqueous hydrochloric acid. Particulars: aqueous amine solution; 20° C.; 0.005 mol/L amine in water titrated with 0.1 mol/L HCl. The protocol:
The pKa values of MDEA and TBAPD were determined by means of titration. An aqueous solution with an amine concentration of 0.005 mol/L of amine was used and titrated with aqueous hydrochloric acid (0.1 mol/L) at 20° C.

`CC(C)(C)NCCOCCO` [TBAEE, 2-(2-tert-butylaminoethoxy)ethanol]: in series [1], the Amine in condensate was 0.7 wt.-%, the Condensate came to 30.0 mL and the Water in condensate was 99.3 wt.-%.
As for `COCCOCCOCCNC(C)(C)C` [M3ETB, (2-(2-(2-tert-butylaminoethoxy)ethoxy)ethyl) methyl ether], in series [1], the Amine in condensate came to 0.7 wt.-%, the Condensate stood at 30.1 mL and the Water in condensate is reported as 99.2 wt.-%. The “Critical Solution Temperature” value in series [2] amounted to 107° ° C.
For orientation: pKa means the negative logarithm of the acid dissociation constant. A low value points to a group that gives up its proton readily. With `CC(C)(C)NCCN1CCCC1=O` [TBAEPY, 1-[2-(tert-butylamino)ethyl]pyrrolidin-2-one], in series [1], the Amine in condensate was determined as 0.2 wt.-%, the Condensate is given as 28.8 mL and the Water in condensate is on record as 99.5 wt.-%. The same compound gave a pKa in series [3] of 9.6. For the same compound, the “Critical Solution Temperature” value in series [2] is recorded as “—** (no phase separation observed at up to 140° C.)”.
As to tert-butylaminoethylmorpholine [TBAEM], in series [1], the Amine in condensate was determined as 1.6 wt.-%, the Condensate is recorded as 34.8 mL and the Water in condensate amounted to 98.0 wt.-%.
Consider “tert-butylaminoethoxyethylmorpholine [TBAEEM]”, for which, in series [1], the Amine in condensate is 0.2 wt.-%, the Condensate is given as 30.5 mL and the Water in condensate was determined as 99.6 wt.-%. The “Critical Solution Temperature” value in series [2] turned out to be 131° ° C.
